Experimental data from ChEMBL document CHEMBL4419172, “Small molecule inhibitors of polynucleotide kinase/phosphatase, poly(ADP-ribose) polymerase and uses thereof” (2017).
Activity calls are given as the source filed them. The rule behind the calls is not given here. Starred links: 1 amine or outer side, 2 acyl side, 3 side chain; linkers in the order of their positions; H or OH if unused. Positions of bridges follow the written chain, without caps; N, C: chain ends. Non-standard residues stand in square brackets, D forms with d. Residues, ends and D or L forms follow the SMILES beside them. Adda = CO[C@@H](Cc1ccccc1)[C@@H](C)/C=C(C)/C=C/[C@H](N[*:1])[C@H](C)C(=O)[*:2]; dAsp(3S-Me) = C[C@H](C(=O)[*:3])[C@@H](N[*:1])C(=O)[*:2]; d(γGlu) = O=C(O)[C@@H](CCC(=O)[*:2])N[*:1]; NMeDha = C=C(NC)C(=O)O

What was measured:
Rattus norvegicus [1] = species on record: Rattus norvegicus; test: Inhibition of rat delta-calcineurin expressed in Escherichia coli assessed as reduction in phosphatase activity by measuring release of inorganic phosphate using 5'-TAMRA-tagged 20-mer oligonucleotide as substrate incubated for 30 mins by fluorescence quenching based assay
M059J = test: Antiproliferative activity against human M059J cells expressing non-functional DNA dependent protein kinase assessed as reduction in cell survival at 1 to 5 uM by MTS assay; type: cell-based
[2] = molecular target: Bifunctional polynucleotide phosphatase/kinase (Mus musculus) (UniProt Q9JLV6); test: Inhibition of mouse PNKP assessed as reduction in PNKP 3'-phosphatase activity by measuring release of inorganic phosphate at 5 to 50 uM using 5'-TAMRA-tagged 20-mer oligonucleotide as substrate incubated for 30 mins by fluorescence quenching based assay
Rattus norvegicus [3] = species on record: Rattus norvegicus; test: Inhibition of rat delta-calcineurin expressed in Escherichia coli assessed as reduction in phosphatase activity by measuring release of inorganic phosphate at 83.3 uM using 5'-TAMRA-tagged 20-mer oligonucleotide as substrate incubated for 30 mins by fluorescence quenching based assay
[4] = Cytotoxicity against human MDA-MB-231 cells assessed as reduction in cell proliferation at >100 uM incubated for 72 hrs by cell-titer 96 aqueous non-radioactive cell proliferation assay; type: cell-based
[5] = Cytotoxicity against human A549 cells assessed as reduction in cell proliferation at >100 uM incubated for 72 hrs by cell-titer 96 aqueous non-radioactive cell proliferation assay; type: cell-based
MDA-MB-231 [6] = test: Radiosensitizer activity in human MDA-MB-231 cells assessed as reduction in cell survival at 1 uM pre-incubated for 2 hrs prior to gamma irradiation and further incubated for 24 hrs and measured after 14 days by crystal violet staining based by clonogenic assay relative to control; type: functional
A549 [7] = test: Cytotoxicity against human A549 cells assessed as reduction in cell proliferation at 1 uM incubated for 72 hrs by cell-titer 96 aqueous non-radioactive cell proliferation assay; type: cell-based; conditions: a549, 72 h
A549 [8] = test: Antiproliferative activity against PNKP-depleted and DNA polymerase-beta dominant negative human A549 cells assessed as reduction in cell survival at 1 to 5 uM by MTS assay; type: functional, cell-based
A549 [9] = test: Radiosensitizer activity in human A549 cells assessed as reduction in cell survival at 1 uM pre-incubated for 2 hrs prior to gamma irradiation and further incubated for 24 hrs and measured after 14 days by crystal violet staining based by clonogenic assay relative to control; type: functional
A549 [10] = test: Radiosensitizer activity in PNKP-depleted human A549 cells assessed as reduction in cell survival at 1 uM pre-incubated for 2 hrs prior to gamma irradiation and further incubated for 24 hrs and measured after 14 days by crystal violet staining based by clonogenic assay relative to control; type: functional
Aprataxin (Homo sapiens) = Aprataxin (Homo sapiens) (UniProt Q7Z2E3); test: Inhibition of human APTX assessed as reduction in phosphatase activity by measuring release of inorganic phosphate at 50 uM using 5'-TAMRA-tagged 20-mer oligonucleotide as substrate incubated for 30 mins by fluorescence quenching based assay
[11] = molecular target: Serine/threonine-protein phosphatase PP1-gamma catalytic subunit (Homo sapiens) (UniProt P36873); test: Inhibition of human PP-1cgamma expressed in Escherichia coli assessed as reduction in phosphatase activity by measuring release of inorganic phosphate at 83.3 uM using 5'-TAMRA-tagged 20-mer oligonucleotide as substrate incubated for 30 mins by fluorescence quenching based assay
MDA-MB-231 [12] = test: Radiosensitizer activity in PNKP-depleted human MDA-MB-231 cells assessed as reduction in cell survival at 1 uM pre-incubated for 2 hrs prior to gamma irradiation and further incubated for 24 hrs and measured after 14 days by crystal violet staining based by clonogenic assay relative to control; type: functional
[13] = Cytotoxicity against human MDA-MB-231 cells assessed as reduction in cell proliferation at 100 uM incubated for 72 hrs by cell-titer 96 aqueous non-radioactive cell proliferation assay; type: cell-based
A549 [14] = test: Chemosensitizer activity in human A549 cells assessed as reduction in cell survival at 1 uM pre-incubated for 2 hrs prior to camptothecin and further incubated for 24 hrs and measured after 10 to 14 days by crystal violet staining based by clonogenic assay relative to control; type: functional
[15] = Cytotoxicity against human A549 cells assessed as reduction in cell proliferation at 100 uM incubated for 72 hrs by cell-titer 96 aqueous non-radioactive cell proliferation assay; type: cell-based
MDA-MB-231 [16] = test: Cytotoxicity against human MDA-MB-231 cells assessed as reduction in cell proliferation at 1 uM incubated for 72 hrs by cell-titer 96 aqueous non-radioactive cell proliferation assay; type: cell-based; conditions: mda-mb-231, 72 h

Sequence of Aprataxin (Homo sapiens) (Q7Z2E3 whole entry): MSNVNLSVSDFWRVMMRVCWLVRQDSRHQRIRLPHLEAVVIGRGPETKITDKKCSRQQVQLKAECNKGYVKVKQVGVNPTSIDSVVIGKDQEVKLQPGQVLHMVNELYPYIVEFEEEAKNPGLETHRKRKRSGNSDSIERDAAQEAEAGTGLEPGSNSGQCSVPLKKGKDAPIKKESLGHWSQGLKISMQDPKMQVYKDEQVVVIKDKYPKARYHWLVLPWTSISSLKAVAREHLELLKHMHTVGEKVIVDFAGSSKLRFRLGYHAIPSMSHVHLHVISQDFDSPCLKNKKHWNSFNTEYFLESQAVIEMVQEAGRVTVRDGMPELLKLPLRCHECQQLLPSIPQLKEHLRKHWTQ
Sequence of Bifunctional polynucleotide phosphatase/kinase (Mus musculus) (Q9JLV6 whole entry): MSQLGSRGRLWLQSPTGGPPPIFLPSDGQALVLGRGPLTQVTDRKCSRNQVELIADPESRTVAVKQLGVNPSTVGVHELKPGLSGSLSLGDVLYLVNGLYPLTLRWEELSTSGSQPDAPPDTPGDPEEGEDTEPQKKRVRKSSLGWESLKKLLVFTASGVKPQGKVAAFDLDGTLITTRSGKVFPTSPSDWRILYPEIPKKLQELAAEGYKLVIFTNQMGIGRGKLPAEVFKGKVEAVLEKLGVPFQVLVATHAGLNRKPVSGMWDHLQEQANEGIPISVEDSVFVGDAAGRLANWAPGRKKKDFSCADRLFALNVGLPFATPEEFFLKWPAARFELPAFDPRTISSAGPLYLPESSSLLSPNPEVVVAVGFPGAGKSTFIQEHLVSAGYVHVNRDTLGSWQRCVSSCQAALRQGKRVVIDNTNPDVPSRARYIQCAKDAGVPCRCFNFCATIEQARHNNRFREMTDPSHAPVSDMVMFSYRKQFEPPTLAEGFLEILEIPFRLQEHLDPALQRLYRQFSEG
Sequence of Serine/threonine-protein phosphatase PP1-gamma catalytic subunit (Homo sapiens) (P36873 2-323 limits assumed): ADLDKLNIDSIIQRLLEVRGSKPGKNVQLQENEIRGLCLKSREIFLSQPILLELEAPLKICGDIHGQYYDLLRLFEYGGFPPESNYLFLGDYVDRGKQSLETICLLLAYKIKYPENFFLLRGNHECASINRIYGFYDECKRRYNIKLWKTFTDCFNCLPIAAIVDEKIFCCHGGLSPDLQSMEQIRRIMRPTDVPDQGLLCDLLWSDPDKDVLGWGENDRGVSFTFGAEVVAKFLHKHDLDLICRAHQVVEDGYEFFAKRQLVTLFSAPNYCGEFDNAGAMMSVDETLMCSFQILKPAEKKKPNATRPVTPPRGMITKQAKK

## C=C1C(=O)N[C@H](C)C(=O)N[C@@H](CC(C)C)C(=O)N[C@@H](C(=O)O)[C@H](C)C(=O)N[C@@H](CCCNC(=N)N)C(=O)N[C@@H](/C=C/C(C)=C/[C@H](C)[C@H](Cc2ccccc2)OC)[C@H](C)C(=O)N[C@@H](C(=O)O)CCC(=O)N1C (R[Adda][d(γGlu)][NMeDha][dA]L[dAsp(3S-Me)]-OH; lactam N-7)
Rattus norvegicus [1]
  inhibition: Active

## CCCCCCCCCCC(O)C1C=CC2C(=O)N(c3ccccc3)C(=O)C2N1Nc1ccc([N+](=O)[O-])cc1 (stereo not drawn)
M059J
  Activity: inactive
[2]
  inhibition: Active
Rattus norvegicus [3]
  inhibition: inactive
[4]
  inhibition at 72 h: ≤ 50%
[5]
  inhibition at 72 h: ≤ 50%
MDA-MB-231 [6]
  Activity: Active
A549 [7]
  Activity: Non-Toxic
A549 [8]
  Activity: Active
A549 [9]
  fold change (FC): 2
A549 [10]
  Activity: inactive
Aprataxin (Homo sapiens)
  inhibition: inactive
[11]
  inhibition: inactive
MDA-MB-231 [12]
  Activity: inactive
[13]
  inhibition at 72 h, 100 µM: ≤ 50%
A549 [14]
  Activity: Active
[15]
  inhibition at 72 h, 100 µM: ≤ 50%
MDA-MB-231 [16]
  Activity: Non-Toxic
